Read-outs that look alike come from different tables or passages of the source. Where a SMILES comes first, the peptide text is derived from it. Bridges are numbered along the chain shown (N, C = ends). [ ]: non-standard residue; d: D form. The star is where a group is joined. d(aIle) = CC[C@H](C)[C@@H](N)C(=O)O; d(aThr) = C[C@@H](O)[C@@H](N)C(=O)O; hCha = N[C@@H](CCC1CCCCC1)C(=O)O; Hexanoyl(5-Me) = CC(C)CCCC(=O)*; Orn = NCCC[C@H](N)C(=O)O; Dhb = C/C=C(\N)C(=O)O
Legend:
Assay type in all cases: cell-based, human
DU-145 = test: SRB colorimetric assay of cell growth and viability, DU-145; details: 48 hours exposure
IGROV-ET = test: SRB colorimetric assay of cell growth and viability, IGROV-ET; details: 48 hours exposure; for CC50: read-out: LC50 IGROV-ET
HT-29 = test: SRB colorimetric assay of cell growth and viability, HT-29; details: 48 hours exposure; for GI50: read-out: GI50 HT-29; for CC50: read-out: LC50 HT-29
LoVo-Dox = test: SRB colorimetric assay of cell growth and viability, LoVo-Dox; details: 48 hours exposure; for CC50: read-out: LC50 LOVO-DOX
Summary of the method: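 Human tumor cells seeded at 5×10^3/well in RPMI 1640 10% FBS, attached 18 hours, then exposed 48 hours to compound (10 to 10^−8 μg/mL). TCA-fixed, SRB-stained, OD 490 nm; triplicates give GI, TGI and LC values.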

HeLa-APL = test: SRB colorimetric assay of cell growth and viability, HeLa-APL; details: 48 hours exposure; for CC50: read-out: LC50 HELA-APL
A-549 = test: SRB colorimetric assay of cell growth and viability, A-549; details: 48 hours exposure; for GI50: read-out: GI50 A-549; for CC50: read-out: LC50 A-549
PANC-1 = test: SRB colorimetric assay of cell growth and viability, PANC-1; details: 48 hours exposure; for CC50: read-out: LC50 PANC-1
LNCaP = test: SRB colorimetric assay of cell growth and viability, LNCaP; details: 48 hours exposure; for GI50: read-out: GI50 LN-caP; for CC50: read-out: LC50 LN-caP
HeLa = test: SRB colorimetric assay of cell growth and viability, HeLa; details: 48 hours exposure; for CC50: read-out: LC50 HELA
SK-BR-3 = test: SRB colorimetric assay of cell growth and viability, SK-BR-3; details: 48 hours exposure
LoVo = test: SRB colorimetric assay of cell growth and viability, LoVo; details: 48 hours exposure; for CC50: read-out: LC50 LOVO
IGROV-1 = test: SRB colorimetric assay of cell growth and viability, IGROV-1; details: 48 hours exposure
K-562 = test: SRB colorimetric assay of cell growth and viability, K-562; details: 48 hours exposure; for CC50: read-out: LC50 K-562
SK-MEL-28 = test: SRB colorimetric assay of cell growth and viability, SK-MEL-28; details: 48 hours exposure; for CC50: read-out: LC50 MEL-28

C/C=C1\NC(=O)[C@H](CCC2CCCCC2)NC(=O)[C@@H](C(C)C)NC(=O)[C@@H]([C@@H](C)CC)NC(=O)[C@H](NC(=O)[C@H](NC(=O)[C@H](CCCN)NC(=O)[C@H]2CCCN2C(=O)[C@H](NC(=O)[C@@H](NC(=O)[C@@H](NC(=O)[C@H](NC(=O)CCCC(C)C)C(C)C)[C@@H](C)O)C(C)C)C(C)C)[C@@H](C)CC)[C@@H](C)OC(=O)[C@H](C(C)C)NC1=O [Compound 63, 5-MeHex-D-Val-Thr-Val-D-Val-D-Pro-Orn-D-allo-Ile-cyclo[D-allo-Thr-D-alo-Ile-D-Val-hCh-(Z)-Dhb-Val]] ({Hexanoyl(5-Me)}-[dV]TV[dV][dP][Orn][d(aIle)][d(aThr)][d(aIle)][dV][hCha][Dhb]V; ester 8-C)
GI50 (DU-145; SRB): 119 nM | LC50 (concentration causing 50% net cell kill) (DU-145; SRB): 1550 nM | TGI DU-145 (DU-145; SRB): 4.25E−07 Molar | GI50 (IGROV-ET; SRB): 76.1 nM | TGI IGROV-ET (IGROV-ET; SRB): 2.01E−07 Molar | CC50 (IGROV-ET; SRB): 529 nM | TGI HT-29 (HT-29; HT-29): 3.22E−07 Molar | GI50 (HT-29; HT-29): 132 nM | CC50 (HT-29; HT-29): 1130 nM | GI50 (LoVo-Dox; LOVO-DOX): 130 nM | TGI LOVO-DOX (LoVo-Dox; LOVO-DOX): 2.56E−07 Molar | CC50 (LoVo-Dox; LOVO-DOX): 502 nM | GI50 (HeLa-APL; HELA-APL): 292 nM | TGI HELA-APL (HeLa-APL; HELA-APL): 1.09E−06 Molar | CC50 (HeLa-APL; HELA-APL): 3230 nM | TGI A-549 (A-549; A-549): 1.60E−06 Molar | GI50 (A-549; A-549): 728 nM | CC50 (A-549; A-549): 3480 nM | GI50 (PANC-1; PANC-1): 1050 nM | TGI PANC-1 (PANC-1; PANC-1): 2.10E−06 Molar | CC50 (PANC-1; PANC-1): 4210 nM | TGI LN-caP (LNCaP; SRB): 1.21E−06 Molar | GI50 (LNCaP; SRB): 336 nM | CC50 (LNCaP; SRB): 2850 nM | GI50 (HeLa; HELA): 175 nM | TGI HELA (HeLa; HELA): 4.99E−07 Molar | CC50 (HeLa; HELA): 2060 nM | GI50 (SK-BR-3; SRB): 74.8 nM | LC50 (SK-BR-3; SRB): 465 nM | TGI SK-BR-3 (SK-BR-3; SRB): 1.86E−07 Molar | GI50 (LoVo; LOVO): 122 nM | TGI LOVO (LoVo; LOVO): 2.40E−07 Molar | CC50 (LoVo; LOVO): 469 nM | GI50 (IGROV-1; SRB): 128 nM | LC50 (concentration causing 50% net cell killing) (IGROV-1; SRB): 2000 nM | TGI IGROV (IGROV-1; SRB): 4.29E−07 Molar | GI50 (K-562; K-562): 1480 nM | TGI K-562 (K-562; K-562): 2.63E−06 Molar | CC50 (K-562; K-562): 4690 nM | GI50 (SK-MEL-28; SRB): 828 nM | TGI MEL-28 (SK-MEL-28; SRB): 1.77E−06 Molar | CC50 (SK-MEL-28; SRB): 3790 nM

CC[C@H](C)[C@@H](NC(=O)[C@H](CCCN)NC(=O)[C@H]1CCCN1C(=O)[C@H](NC(=O)[C@@H](NC(=O)[C@@H](NC(=O)[C@H](NC(=O)CCCC(C)C)C(C)C)[C@@H](C)O)C(C)C)C(C)C)C(=O)N[C@H]1C(=O)N[C@H]([C@@H](C)CC)C(=O)N[C@H](C(C)C)C(=O)N[C@@H](Cc2ccccc2)C(=O)NCC(=O)N[C@@H](C(C)C)C(=O)O[C@@H]1C [Compound 65, [Gly^2]-KF] ({Hexanoyl(5-Me)}-[dV]TV[dV][dP][Orn][d(aIle)][d(aThr)][d(aIle)][dV]FGV; ester 8-C)
GI50 (DU-145): 1170 nM | LC50 (concentration causing 50% net cell kill) (DU-145): 4440 nM | TGI DU-145 (DU-145): 2.28E−06 Molar | GI50 (IGROV-ET): 806 nM | TGI IGROV-ET (IGROV-ET): 1.69E−06 Molar | CC50 (IGROV-ET): 3560 nM | TGI HT-29 (HT-29; SRB): 2.54E−06 Molar | GI50 (HT-29; SRB): 1230 nM | CC50 (HT-29; SRB): 5280 nM | GI50 (LoVo-Dox; SRB): 557 nM | TGI LOVO-DOX (LoVo-Dox; SRB): 1.53E−06 Molar | CC50 (LoVo-Dox; SRB): 3810 nM | GI50 (HeLa-APL; SRB): 2230 nM | TGI HELA-APL (HeLa-APL; SRB): 6.89E−06 Molar | CC50 (HeLa-APL; SRB): ≥ 6890 nM | TGI A-549 (A-549; SRB): 4.99E−06 Molar | GI50 (A-549; SRB): 1950 nM | CC50 (A-549; SRB): ≥ 6890 nM | GI50 (PANC-1; SRB): ≥ 6890 nM | TGI PANC-1 (PANC-1; SRB): 6.89E−06 Molar | CC50 (PANC-1; SRB): ≥ 6890 nM | TGI LN-caP (LNCaP): 6.89E−06 Molar | GI50 (LNCaP): 3480 nM | CC50 (LNCaP): ≥ 6890 nM | GI50 (HeLa; SRB): 1210 nM | TGI HELA (HeLa; SRB): 1.99E−06 Molar | CC50 (HeLa; SRB): 3260 nM | GI50 (SK-BR-3): 1160 nM | LC50 (SK-BR-3): 4190 nM | TGI SK-BR-3 (SK-BR-3): 2.21E−06 Molar | GI50 (LoVo; SRB): 1030 nM | TGI LOVO (LoVo; SRB): 1.98E−06 Molar | CC50 (LoVo; SRB): 3810 nM | GI50 (IGROV-1): 1440 nM | LC50 (concentration causing 50% net cell killing) (IGROV-1): 4960 nM | TGI IGROV (IGROV-1): 2.67E−06 Molar | GI50 (K-562; SRB): 3000 nM | TGI K-562 (K-562; SRB): 6.89E−06 Molar | CC50 (K-562; SRB): ≥ 6890 nM | GI50 (SK-MEL-28): 1430 nM | TGI MEL-28 (SK-MEL-28): 3.39E−06 Molar | CC50 (SK-MEL-28): ≥ 6890 nM

Source: patent US20070117743A1, “New antitumoral compounds” (priority 2003, published 2007)
